Patent publication US6440984B1, “Use of aryl-substituted pyrimidines as insecticidal and acaricidal agents” (BASF Aktiengesellschaft, priority 1998, dated 2002)

Tests used:
[1] = test system: Aphis Fabae, Mixed Instar, Bean Aphid (BA); assay: Bean aphid (BA) foliar spray test, mortality after 2 days; assay type: in vivo; details: rating scale; for pest or weed control at 300 ppm: Aphis fabae, 48 h, read-out: BA AD-FOLIAR 300 (ppm)
Method: (§1) Test solutions are prepared by dissolving the test compound in a 35% acetone in water mixture to give a concentration of 10,000 ppm. Subsequent dilutions are made with water as needed.
Aphis Fabae, Mixed Instar, Bean Aphid (BA)
(§2) Pots containing single nasturtium plants (Tropaeolum sp.) about 5 cm tall are infested with about 100-200 aphids one day before the test. Each pot is sprayed with the test solution for 2 revolutions of a 4 rpm turntable in a hood. The spray is directed to give complete coverage of the plants and aphids. The sprayed pots are set on their sides on white trays and held for 2 days, following which mortality estimates are made. Essentially the same method is used with respect to cotton aphid (CA).

[2] = test system: Spodoptera Eridania, 3rd Instar Larvae, Southern Armyworm (SAW); assay: Southern armyworm (SAW) leaf-dip test, observations at 5 days; assay type: in vivo; details: Southern Army Worm, rating scale; for pest or weed control at 1000 ppm: Spodoptera eridania, foliar, 120 h, read-out: SAW 2^ND-FOLIAR 1000 (ppm)
Method: as §1
Spodoptera Eridania, 3rd Instar Larvae, Southern Armyworm (SAW)
A Sieva lima bean leaf expanded to 7-8 cm in length is dipped in the test solution with agitation for 3 seconds and allowed to dry in a hood. The leaf is then placed in a 100×10 mm petri dish containing a damp filter paper on the bottom and ten 3rd instar caterpillars. At 5 days, observations are made of mortality, reduced feeding, or any interference with normal molting.

[3] = test system: Diabrotica Virgifera Virgifera Leconte, 3rd Instar Western Corn Rootworm (WCR); assay: Western corn rootworm (WCR) soil test, mortality at 5 days; assay type: in vivo; details: rating scale; for pest or weed control at 50 ppm: Diabrotica virgifera, 120 h, read-out: WCR 2^ND-SOIL 50 (ppm)
Method: Diabrotica Virgifera Virgifera Leconte, 3rd Instar Western Corn Rootworm (WCR) One cc of fine talc is placed in a 30 mL wide-mouth screw-top glass jar. One mL of the appropriate acetone test solution is pipetted onto the talc so as to provide 1.25 mg of active ingredient per jar. The jars are set under a gentle air flow until the acetone is evaporated. The dried talc is loosened, 1 cc of millet seed is added to serve as food for the insects and 25 mL of moist soil is added to each jar. The jar is capped and the contents thoroughly mixed mechanically. Following this, ten 3rd instar rootworms are added to each jar and the jars are loosely capped to allow air exchange for the larvae. The treatments are held for 5 days when mortality counts are made. Missing larvae are presumed dead, since they decompose rapidly and can not be found. The concentrations of active ingredient used in this test correspond approximately to 50 kg/ha.

[4] = test system: Tetranychus Urticae (OP-resistant strain), 2-spotted Spider Mite (TSM); assay: Two-spotted spider mite (TSM) plant-dip test, mortality after 2 days; assay type: in vivo; details: rating scale; for pest or weed control at 300 ppm: Tetranychus urticae, 48 h, read-out: TSM AD-FOLIAR 300 (ppm)
Method: as §1
Tetranychus Urticae (OP-resistant strain), 2-spotted Spider Mite (TSM)
Sieva lima bean plants with primary leaves expanded to 7-8 cm are selected and cut back to one plant per pot. A small piece is cut from an infested leaf taken from the main colony and placed on each leaf of the test plants. This is done about 2 hours before treatment to allow the mites to move over to the test plant to lay eggs. The size of the cut, infested leaf is varied to obtain about 100 mites per leaf. At the time of test treatment, the piece of leaf used to transfer the mites is removed and discarded. The newly-infested plants are dipped in the test solution for 3 seconds with agitation and set in the hood to dry. After 2 days, one leaf is removed and mortality counts are made.

Cotton Aphid (CA) = assay: Cotton aphid (CA) foliar spray test, essentially the bean aphid method; assay type: in vivo; details: rating scale
Method: as §1, §2

Fc1ccc(Oc2nccc(-c3ccc(C(F)(F)F)cc3)n2)cc1C(F)(F)F [Compound 129]
pest or weed control at 300 ppm [1]: 45 to 75%
pest or weed control at 1000 ppm [2]: 0 to 45%
pest or weed control at 50 ppm [3]: 45 to 75%

FC(F)(F)Oc1ccc(-c2ccnc(Oc3ccc(Cl)c(Cl)c3)n2)cc1 [Compound 50]
BA AD-FOLIAR 300 (ppm) [1]: B (B 45-75% kill)
SAW 2^ND-FOLIAR 1000 (ppm) [2]: A (A 0-45% kill)
WCR 2^ND-SOIL 50 (ppm) [3]: C (C 76-100% kill)

FC(F)(F)Oc1cccc(-c2ccnc(Oc3cccc(C(F)(F)F)c3)n2)c1 [Compound 38]
BA AD-FOLIAR 300 (ppm) [1]: A (A 0-45% kill)
TSM AD-FOLIAR 300 (ppm) [4]: A (A 0-45% kill)
WCR 2^ND-SOIL 50 (ppm) [3]: C (C 76-100% kill)

Fc1cccc(-c2ccnc(Oc3ccc(F)c(C(F)(F)F)c3)n2)c1 [Compound 68]
TSM AD-FOLIAR 300 (ppm) [4]: B (B 45-75% kill)
CA-FOLIAR 300 (ppm) (Cotton Aphid (CA)): C (C 76-100% kill)

Fc1cc(-c2ccnc(Oc3ccc(F)c(C(F)(F)F)c3)n2)ccc1Cl [Compound 78]
TSM AD-FOLIAR 300 (ppm) [4]: B (B 45-75% kill)
CA-FOLIAR 300 (ppm) (Cotton Aphid (CA)): B (B 45-75% kill)

Fc1cccc(Oc2nccc(-c3cc(Cl)c(Cl)c(C(F)(F)F)c3)n2)c1 [Compound 64]
TSM AD-FOLIAR 300 (ppm) [4]: A (A 0-45% kill)
WCR 2^ND-SOIL 50 (ppm) [3]: C (C 76-100% kill)
CA-FOLIAR 300 (ppm) (Cotton Aphid (CA)): A (A 0-45% kill)

FC(F)(F)c1cccc(Oc2nccc(-c3cccc(Cl)c3)n2)c1 [Compound 67]
TSM AD-FOLIAR 300 (ppm) [4]: A (A 0-45% kill)
CA-FOLIAR 300 (ppm) (Cotton Aphid (CA)): C (C 76-100% kill)

Fc1ccc(Oc2ncc(Cl)c(-c3ccc(Cl)c(Cl)c3)n2)cc1C(F)(F)F [Compound 93, 2-(3-Trifluoromethyl-4-fluorophenoxy)-4-(3,4-dichlorophenyl)-5-chloropyrimidine]
melting point: 90 to 92 °C

FC(F)(F)Oc1cccc(-c2ccnc(Oc3cc(C(F)(F)F)cc(C(F)(F)F)c3)n2)c1 [Compound 42]
BA AD-FOLIAR 300 (ppm) [1]: B (B 45-75% kill)
TSM AD-FOLIAR 300 (ppm) [4]: C (C 76-100% kill)
WCR 2^ND-SOIL 50 (ppm) [3]: B (B 45-75% kill)

FC(F)(F)c1cc(-c2ccnc(Oc3ccccc3)n2)cc(Cl)c1Cl [Compound 63]
BA AD-FOLIAR 300 (ppm) [1]: A (A 0-45% kill)
TSM AD-FOLIAR 300 (ppm) [4]: A (A 0-45% kill)
CA-FOLIAR 300 (ppm) (Cotton Aphid (CA)): C (C 76-100% kill)

FC(F)(F)c1ccc(-c2ccnc(Oc3ccc(Cl)c(C(F)(F)F)c3)n2)cc1 [Compound 145]
pest or weed control at 300 ppm [1]: 45 to 75%
pest or weed control at 1000 ppm [2]: 0 to 45%
pest or weed control at 50 ppm [3]: 76 to 100%

Fc1ccc(Oc2nccc(-c3cccc(C(F)(F)F)c3)n2)cc1C(F)(F)F [Compound 21]
BA AD-FOLIAR 300 (ppm) [1]: A (A 0-45% kill)
TSM AD-FOLIAR 300 (ppm) [4]: A (A 0-45% kill)
WCR 2^ND-SOIL 50 (ppm) [3]: C (C 76-100% kill)

CCc1cnc(Oc2cccc(C(F)(F)F)c2)nc1-c1cccc(C(F)(F)F)c1 [Compound 157]
pest or weed control at 300 ppm [1]: 45 to 75%
pest or weed control at 1000 ppm [2]: 0 to 45%
pest or weed control at 300 ppm [4]: 45 to 75%
pest or weed control at 50 ppm [3]: 76 to 100%

FC(F)(F)Oc1cccc(-c2ccnc(Oc3ccc(Cl)c(Cl)c3)n2)c1 [Compound 43]
BA AD-FOLIAR 300 (ppm) [1]: C (C 76-100% kill)
TSM AD-FOLIAR 300 (ppm) [4]: C (C 76-100% kill)
WCR 2^ND-SOIL 50 (ppm) [3]: C (C 76-100% kill)

Fc1cc(-c2ccnc(Oc3cc(C(F)(F)F)cc(C(F)(F)F)c3)n2)cc(C(F)(F)F)c1 [Compound 60]
SAW 2^ND-FOLIAR 1000 (ppm) [2]: C (C 76-100% kill)
WCR 2^ND-SOIL 50 (ppm) [3]: C (C 76-100% kill)

CCc1ccc(-c2ccnc(Oc3ccc(Cl)c(Cl)c3)n2)cc1 [Compound 12]
SAW 2^ND-FOLIAR 1000 (ppm) [2]: C (C 76-100% kill)
TSM AD-FOLIAR 300 (ppm) [4]: C (C 76-100% kill)
WCR 2^ND-SOIL 50 (ppm) [3]: C (C 76-100% kill)

Fc1ccc(-c2ccnc(Oc3cccc(C(F)(F)F)c3)n2)cc1C(F)(F)F [Compound 71]
BA AD-FOLIAR 300 (ppm) [1]: C (C 76-100% kill)
TSM AD-FOLIAR 300 (ppm) [4]: A (A 0-45% kill)
CA-FOLIAR 300 (ppm) (Cotton Aphid (CA)): B (B 45-75% kill)

Cc1cnc(Oc2cccc(C(F)(F)F)c2)nc1-c1ccccc1 [Compound 163]
pest or weed control at 300 ppm [1]: 0 to 45%
pest or weed control at 300 ppm [4]: 45 to 75%
pest or weed control at 50 ppm [3]: 76 to 100%

Fc1cc(-c2ccnc(Oc3ccc(Cl)c(C(F)(F)F)c3)n2)cc(C(F)(F)F)c1 [Compound 51]
SAW 2^ND-FOLIAR 1000 (ppm) [2]: B (B 45-75% kill)
WCR 2^ND-SOIL 50 (ppm) [3]: C (C 76-100% kill)

Fc1ccc(-c2ccnc(Oc3cccc(C(F)(F)F)c3)n2)cc1 [Compound 23]
TSM AD-FOLIAR 300 (ppm) [4]: A (A 0-45% kill)
WCR 2^ND-SOIL 50 (ppm) [3]: B (B 45-75% kill)

Fc1cc(-c2ccnc(Oc3cc(Cl)cc(Cl)c3)n2)cc(C(F)(F)F)c1 [Compound 59]
BA AD-FOLIAR 300 (ppm) [1]: B (B 45-75% kill)
WCR 2^ND-SOIL 50 (ppm) [3]: C (C 76-100% kill)

FC(F)(F)c1ccc(-c2ccnc(Oc3cccc(C(F)(F)F)c3)n2)cc1 [Compound 144]
pest or weed control at 300 ppm [1]: 45 to 75%
pest or weed control at 1000 ppm [2]: 0 to 45%
pest or weed control at 50 ppm [3]: 76 to 100%

FC(F)(F)c1cccc(Oc2nccc(-c3ccccc3)n2)c1 [Compound 5]
BA AD-FOLIAR 300 (ppm) [1]: A (A 0-45% kill)
SAW 2^ND-FOLIAR 1000 (ppm) [2]: A (A 0-45% kill)
TSM AD-FOLIAR 300 (ppm) [4]: B (B 45-75% kill)
WCR 2^ND-SOIL 50 (ppm) [3]: C (C 76-100% kill)

CCc1cnc(Oc2ccc(Cl)c(C(F)(F)F)c2)nc1-c1cccc(C(F)(F)F)c1 [Compound 158]
pest or weed control at 1000 ppm [2]: 0 to 45%
pest or weed control at 50 ppm [3]: 76 to 100%

Fc1ccc(Oc2nccc(-c3cccc(OC(F)(F)F)c3)n2)cc1C(F)(F)F [Compound 37]
BA AD-FOLIAR 300 (ppm) [1]: A (A 0-45% kill)
SAW 2^ND-FOLIAR 1000 (ppm) [2]: C (C 76-100% kill)
TSM AD-FOLIAR 300 (ppm) [4]: A (A 0-45% kill)
WCR 2^ND-SOIL 50 (ppm) [3]: B (B 45-75% kill)

Fc1ccc(-c2ccnc(Oc3ccc(F)c(C(F)(F)F)c3)n2)cc1 [Compound 22, 2-(3-Trifluoromethyl-4-fluorophenoxy)-4-(4-fluorophenyl)pyrimidine]
pest or weed control at 300 ppm [1]: 45 to 75%
pest or weed control at 1000 ppm [2]: 0 to 45%
pest or weed control at 300 ppm [4]: 0 to 45%
pest or weed control at 50 ppm [3]: 76 to 100%

Fc1ccc(Oc2nccc(-c3ccc(OC(F)(F)F)cc3)n2)cc1Cl [Compound 55]
BA AD-FOLIAR 300 (ppm) [1]: A (A 0-45% kill)
SAW 2^ND-FOLIAR 1000 (ppm) [2]: A (A 0-45% kill)
TSM AD-FOLIAR 300 (ppm) [4]: A (A 0-45% kill)
WCR 2^ND-SOIL 50 (ppm) [3]: C (C 76-100% kill)

Fc1ccc(Oc2nccc(-c3cccc(Cl)c3)n2)cc1C(F)(F)F [Compound 66]
TSM AD-FOLIAR 300 (ppm) [4]: A (A 0-45% kill)
WCR 2^ND-SOIL 50 (ppm) [3]: C (C 76-100% kill)
CA-FOLIAR 300 (ppm) (Cotton Aphid (CA)): A (A 0-45% kill)

CCCc1cnc(Oc2ccc(F)c(C(F)(F)F)c2)nc1-c1cccc(C(F)(F)F)c1 [Compound 160]
pest or weed control at 1000 ppm [2]: 0 to 45%
pest or weed control at 300 ppm [4]: 0 to 45%
pest or weed control at 50 ppm [3]: 76 to 100%

FC(F)(F)Oc1cccc(-c2ccnc(Oc3ccc(Cl)c(C(F)(F)F)c3)n2)c1 [Compound 39]
TSM AD-FOLIAR 300 (ppm) [4]: A (A 0-45% kill)
WCR 2^ND-SOIL 50 (ppm) [3]: B (B 45-75% kill)

CCc1cnc(Oc2cccc(C(F)(F)F)c2)nc1-c1ccc(Cl)cc1 [Compound 131]
pest or weed control at 1000 ppm [2]: 0 to 45%
pest or weed control at 50 ppm [3]: 76 to 100%

CC(C)(C)c1ccc(-c2ccnc(Oc3ccc(F)c(C(F)(F)F)c3)n2)cc1 [Compound 24]
BA AD-FOLIAR 300 (ppm) [1]: A (A 0-45% kill)
WCR 2^ND-SOIL 50 (ppm) [3]: C (C 76-100% kill)
